Reference: ChEMBL document CHEMBL1151610, “Use of potato disc and brine shrimp bioassays to detect activity and isolate piceatannol as the antileukemic principle from the seeds of Euphorbia lagascae” (J Nat Prod, 1984)
In brackets after ≈: the same amount, converted by molar mass. Activity calls are given as the source filed them. No cut-off for these calls is given here.

Legend:
Mus musculus = assay: Antitumor activity against mouse 3PS cells xenografted mouse assessed as increase in life span; format: functional, cell-based
[1] = Toxicity against brine shrimp; format: organism-based; details: artemia, in vivo
[2] = system: Agrobacterium tumefaciens; assay: Antitumor activity against Agrobacterium tumefaciens-induced tumor formation at 10 ug/disk by potato disk assay; format: functional
[3] = Cytotoxicity against mouse 9PS cells; format: functional; details: read-out: LC50 (the source's name)
[4] = Antitumor activity against mouse 3PS cells xenografted mouse assessed as increase in life span at 25 mg/kg; format: functional
[5] = Antitumor activity against mouse 3PS cells xenografted mouse assessed as increase in life span at 12.5 mg/kg; format: functional
[6] = Antitumor activity against mouse 3PS cells xenografted mouse assessed as increase in life span at 6.25 mg/kg; format: functional
[7] = Antitumor activity against mouse 3PS cells xenografted mouse assessed as increase in life span at 3.62 mg/kg; format: functional
[8] = Antitumor activity against mouse 3PS cells xenografted mouse assessed as increase in life span at 50 mg/kg; format: functional

Row | SMILES | Activity (Mus musculus) | LC50 [1] | Activity [2] | CC50 [3] | Activity [4] | Activity [5] | Activity [6] | Activity [7] | Activity [8]
1 | O=c1ccc2cc(O)c(O)cc2o1 [ESCULETIN] | inactive | > 1000 µg/mL | -13% | 3.9 µg/mL (≈ 21.9 µM) |  |  |  |  | 
2 | Oc1cc(O)cc(/C=C/c2ccc(O)c(O)c2)c1 [PICEATANNOL] |  | 278 µg/mL (≈ 1140 µM) | -20% | 2.5 µg/mL (≈ 10.2 µM) | 123% | 118% | 114% | 109% | 131%
